Measurements from US20120015925A1, “NOVEL BENZOTHIAZEPINE AND BENZOTHIEPINE COMPOUNDS” (ASAHI KASEI PHARMA CORPORATION, priority 2004, published 2012).
Blank lines part the entries; values can stand above or below the compound they belong to.

Key:
[1] = system: rats with partial ligation of the bile duct dosed bile acid; test: Model for hepatic disorder associated with cholestasis (partial bile duct ligation model), Protocol A: AST, ALT, ALP; assay type: in vivo, rat; conditions: Table 11, Protocol A, ursodeoxycholic acid 50 mg/kg oral twice per day for 3.5 days, N=8, mean±standard error
From the text: (§1) In the present Test Example, a model for the hepatic disorder caused by partial ligation of the bile duct was employed with reference to Kanno's method (Liver, 43, Suppl(1):A126, 2002).
(§2) That is, to the SD (IGS) strain male rats at 7 to 10 weeks of age, the partial ligation of the bile duct was given with opening the abdominal cavity under anesthesia with pentobarbital. Before the operation, the blood was collected from femoral vein, in order to obtain the value before the administration. From the day after the operation, 200 mg/kg of bile acid and the test compound were orally administered forcibly twice per day for 3.5 days (Protocol A). Without giving the partial ligation of the bile duct, 200 mg/kg of bile acid and the test compound were also orally administered forcibly twice per day for 3.5 days (Protocol B). In both cases, the test compound was dissolved or suspended in distilled water or an aqueous solution of 1% HCO 60 (Nippon Chemicals). To the control group, saline was administered. As comparative examples, 25 mg/kg of cholestyramine (supplied from Sigma) or 50 mg/kg of ursodeoxycholic acid (supplied from Mitsubishi Pharma) was administered. For considering the effect of the operation, sham operation (sham group) was performed in some cases. The blood was collected from the abdominal aorta 6 hours after the drug administration on the final day of the experiment. AST (GOT), ALT (GPT) and ALP in the blood were measured using measurement kits (GOT II-HA Test Wako, GPT II-HA Test Wako and Alkaline Phosphor HA Test Wako, all were supplied from Wako Pure Chemical Industries) and using an automatic analyzer (Nitech ANALAYZER SUPER Z818).

rats dosed cholic acid = test: Lowering effect on bile acid concentrations in portal vein blood in rats dosed cholic acid; assay type: in vivo, rat
Description: In the present Test Example, a lowering effect on bile acid concentrations in portal vein blood in rats dosed cholic acid was evaluated according to the method described in Jpn. Pharmacol. Ther., Vol. 24 Supplement, 1996, 103(S-577)-110(S-584).
That is, SD (IGS) strain male rats at 7 to 9 weeks of age were fasted one day before the administration date. […] The blood was collected from the portal vein 2 hours after the forced oral administration, and a total bile acid value in serum was measured to examine the effect of the test compound (n=6). As a control, another group (n=6) merely received cholic acid (200 mg/kg), to which the same procedure was applied. The cholic acid value was measured using the commercially available kit (brand name: Total Bile Acid-Test Wako, supplied form Wako Pure Chemical Industries). Defining the value in the control group to which no test compound had been administered as being 100%, a reduction rate (%) of the bile acid value when a certain amount of the test compound had been administered was calculated.

rats dosed bile acid = test: Model for hepatic disorder associated with cholestasis, Protocol B (bile acid without partial ligation): AST, ALT, ALP; assay type: in vivo, rat; conditions: Table 13, Protocol B, ursodeoxycholic acid 50 mg/kg oral twice per day for 3.5 days, N=8, mean±standard error
From the text: as §1, §2

Caco-2 cell = test: Gastrointestinal toxicity: cytotoxicity against Caco-2 cell (LDH activity); assay type: cell-based, human; conditions: 2 hours, LDH activity in medium relative to cell lysis agent = 100%
Description: That is, 10,000 cells/well of Caco-2 cells (purchased from ATCC) were seeded in a 96-well plate [MEM-E medium, 10% FBS (Fetal Bovine Serum), 1% NEAA (Non Essential Amino Acid) solution, supplied from Gibco]. After culturing for 48 hours, the test compound diluted with the medium was added to each well. After 2 hours, 50 μL of the medium was collected, and an LDH activity in the medium was measured using an LDH activity measurement kit (CytoTox96 Non-Radioactive Cytotoxicity Assay, supplied from Promega). Defining the LDH activity of the Caco-2 cells treated with a cell lysis agent as being 100%, the relative activity was calculated as a index of the cytotoxicity.

rat IBAT = target: T1, rat IBAT (Rattus norvegicus, UniProt Q62633); test: In vitro assay using Cos 7 cells, transiently expressed rat IBAT; assay type: cell-based; conditions: 37° C., 60 minutes
T1 sequence (Q62633 1-348): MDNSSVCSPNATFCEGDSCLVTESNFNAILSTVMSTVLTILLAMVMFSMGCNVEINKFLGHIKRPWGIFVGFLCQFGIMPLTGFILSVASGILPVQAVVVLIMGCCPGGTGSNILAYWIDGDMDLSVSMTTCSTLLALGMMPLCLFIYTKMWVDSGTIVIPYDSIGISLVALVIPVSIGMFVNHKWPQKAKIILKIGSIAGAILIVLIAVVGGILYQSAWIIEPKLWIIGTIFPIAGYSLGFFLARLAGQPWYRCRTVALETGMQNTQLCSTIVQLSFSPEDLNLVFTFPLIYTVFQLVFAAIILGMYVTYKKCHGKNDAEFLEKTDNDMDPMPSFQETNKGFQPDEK
Description: In the present Test Example, an in vitro assay of compounds using Cos 7 cells as to inhibitory activity on transiently expressed human IBAT or rat IBAT transporter was performed according to the method described in Am. J. Physiol., 274, G157-169.
That is, […] cells/well of Cos 7 cells were seeded in a 24-well plate, and after one day, the cells were transfected with 0.3 μg/well of cDNA of human IBAT or rat IBAT using FuGENE6 (supplied from Roche). After culturing for one day after the transfection, the cells were washed once with the assay buffer, i.e., Hanks buffer containing 25 mM glucose and 10 mM HEPES (pH 7.4). The assay buffer was then replaced with the assay buffer containing the test compound. [^3H]-Taurocholate at a final concentration of 8 μM was added thereto and incubated at 37° C. for 60 minutes so that [^3H]-taurocholate was taken into Cos 7 cells by the action of human IBAT or rat IBAT. The cells were washed twice with the assay buffer containing 1 mM taurocholate, and subsequently lysed with 0.2 M NaOH to stop the reaction. The cell lysate was added to 4 mL of liquid scintillation cocktail, which was then thoroughly vortexed. Then the radioactivity was measured using the liquid scintillation counter.

[2] = system: rats fed cholesterol food; test: Blood cholesterol lowering effect in rats fed cholesterol food; assay type: in vivo, rat; conditions: 0.3 mg/kg per administration, oral, twice per day; SD (IGS) male rats; serum 3 hours after final administration
Description: In the present Test Example, a blood cholesterol lowering effect on rats fed cholesterol food was evaluated according to the method described in J. Lipid Res., 1995, 36, 1098-1105.
That is, the food containing 0.4% cholesterol and 0.5% bile acid was given to SD (IGS) strain male rats at 7 to 9 weeks of age for 5 days in advance of the test date, to increase blood cholesterol levels. The rats in which the blood cholesterol level had been obviously elevated from the level before loading the cholesterol food were selected as the subjects in the test. Colestimide (brand name: Cholebine 70% granules, supplied from Mitsubishi Tokyo Pharmaceutical Inc.) which is an anion exchange resin drug was suspended in distilled water, and the test compound was dissolved or suspended in distilled water. They were orally administered forcibly twice per day everyday from the starting date (each n=8). The blood was collected from jugular vein 3 hours after the drug administration on the final day of the experiment, and the cholesterol level in serum was measured to examine the effect of the test compound. As a control, another group (n=8) was merely fed cholesterol food, to which distilled water (1 mL/kg) was administered and the same procedure was applied. The total cholesterol value and the HDL cholesterol value were measured using commercially available kits. The value obtained by subtracting the HDL cholesterol value from the total cholesterol value was regarded as an LDL+VLDL cholesterol value.

human IBAT = target: T2, human IBAT (Homo sapiens, UniProt Q12908); test: In vitro assay using Cos 7 cells, transiently expressed human IBAT; assay type: cell-based; conditions: 37° C., 60 minutes
T2 sequence (Q12908 1-348): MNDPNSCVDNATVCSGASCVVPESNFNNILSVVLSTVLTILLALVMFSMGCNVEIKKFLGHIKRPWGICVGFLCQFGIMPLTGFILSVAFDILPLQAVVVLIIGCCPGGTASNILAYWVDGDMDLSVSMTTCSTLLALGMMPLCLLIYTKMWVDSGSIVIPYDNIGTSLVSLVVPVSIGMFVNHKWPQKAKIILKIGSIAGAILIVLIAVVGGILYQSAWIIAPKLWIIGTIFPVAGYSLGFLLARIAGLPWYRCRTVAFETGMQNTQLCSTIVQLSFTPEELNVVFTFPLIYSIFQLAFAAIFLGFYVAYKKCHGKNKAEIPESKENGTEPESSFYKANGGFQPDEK
Procedure, shortened: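 Cos 7 cells transfected with human or rat IBAT cDNA were assayed one day later in Hanks buffer with 25 mM glucose and 10 mM HEPES (pH 7.4) containing compound. [^3H]-taurocholate (8 μM final) uptake ran 60 min at 37° C. Cells were washed with 1 mM taurocholate, lysed in NaOH, and counted by liquid scintillation.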

Caco-2 cells = test: Measurement of permeability through Caco-2 cell; assay type: in vitro ADME, human; conditions: 2 hours
Description: Permeability of the compound described in Examples through Caco-2 cells was studied with reference to Artursson Per et al.'s method (Journal of Pharmaceutical Sciences, 79(6): 476-482:1990).
Transwell cell culture chamber (Costar) having a membrane filter coated with collagen (3 μm pores, 0.33 cm^2 growth area) was placed on a 24-well plate. Caco-2 cells (purchased from ATCC) were seeded at the amount of 6.6×10^4 cells/filter (2×10^5 cells/cm^2) (D-MEM medium, 10% FBS (Fetal Bovine Serum), 0.1 mM NEAA (Non Essential Amino Acid), 100 U/mL penicillin, 100 μg/mL streptomycin, supplied from Gibco, and 25 mM glucose). Each Transwell cell culture chamber was placed in each well in a 24-well plate. 0.75 mL of the medium was filled in an external chamber and 0.15 mL of the medium was filled in an internal chamber. The medium was changed every 2 to 3 days, and 18 to 25 days after seeding when a single layer of Caco-2 cells was formed, the cells were used for the test.
In the test for examining the permeability of the compound, the Caco-2 cells cultured in the chamber were used. The internal and external chamber solutions were replaced twice with Hanks balanced salt solution (HBSS) containing 25 mM glucose, 10 mM Hepes and 0.05% Tween 80. […] A permeability coefficient (Papp) was calculated from the formula Papp=dQ/dt/(Co×A). […]

[3] = 0.1 mg/kg oral with cholic acid 200 mg/kg, portal vein serum total bile acid 2 hours after, control = 100%, surfactant HCO-60 (##)

SMILES: C[C@H](CCC(=O)O)[C@H]1CC[C@H]2[C@@H]3[C@@H](O)C[C@@H]4C[C@H](O)CC[C@]4(C)[C@H]3CC[C@]12C [Comparative Example 2, ursodeoxycholic acid, reference compound]
ALT ([1]; control group 200 ± 81): 98 ± 25 IU/L
AST ([1]; control group 400 ± 160): 256 ± 64 IU/L
ALP ([1]; control group 1120 ± 410): 785 ± 120 IU/L
BILE ACID REDUCTION RATE (%) IN RAT MODEL WITH CHOLIC ACID LOADING (rats dosed cholic acid; 0.1 mg/kg oral, surfactant Tween 20 0.05%, cholic acid 200 mg/kg, portal vein blood 2 hours after administration): 3%
ALT (rats dosed bile acid; control group 82 ± 17): 62 ± 9 IU/L
AST (rats dosed bile acid; control group 157 ± 35): 109 ± 11 IU/L
ALP (rats dosed bile acid; control group 593 ± 77): 453 ± 58 IU/L

SMILES: CCCCC1(CCCC)CS(=O)(=O)c2ccc(N(C)C)cc2C(c2cccc(NC(=S)Nc3ccc(C[N+]45CCC(c6ccccc6)(CC4)CC5)c(C)c3)c2)N1.[Br-] (stereo not drawn) [EXAMPLE P341]
BILE ACID REDUCTION RATE (%) IN RAT MODEL WITH CHOLIC ACID LOADING (rats dosed cholic acid; [3]): 32%
CELL TOXICITY AGAINST Caco2 10 μM (Caco-2 cell): <1%
CELL TOXICITY AGAINST Caco2 30 μM (Caco-2 cell): <1%
IC50 (rat IBAT; [3H]-taurocholate 8 μM): 4.3 nM
LDL + VLDL REDUCTION RATE (%) IN CHOLESTEROL FED RAT MODEL (THERAPEUTIC MODEL) [2]: 33%
IC50 (human IBAT; [3H]-taurocholate 8 μM): 22 nM

IC50 (rat IBAT; [3H]-taurocholate 8 μM uptake): 4.8 nM
IC50 (human IBAT; [3H]-taurocholate 8 μM uptake): 15 nM
SMILES: CCCCC1(CCCC)CS(=O)(=O)c2ccc(N(C)C)cc2C(c2cccc(NC(=S)Nc3ccc(C[N+]45CCC(c6ccccc6)(CC4)CC5)cc3F)c2)N1.[Br-] (stereo not drawn) [EXAMPLE P342]
BILE ACID REDUCTION RATE (%) IN RAT MODEL WITH CHOLIC ACID LOADING (rats dosed cholic acid; [3]): 39%
CELL TOXICITY AGAINST Caco2 10 μM (Caco-2 cell): <1%
CELL TOXICITY AGAINST Caco2 30 μM (Caco-2 cell): <1%
LDL + VLDL REDUCTION RATE (%) IN CHOLESTEROL FED RAT MODEL (THERAPEUTIC MODEL) [2]: 46%

PERMEATION RATIO (PERMEATION × 10^−6 cm/s) (Caco-2 cells; 100 μM in internal chamber, HBSS pH 7.4, 37° C.): 29.4 × 10^−6 cm/s
permeability coefficient (Papp) through Caco-2 cells (Caco-2 cells; 100 μM, 37° C., pH 7.4): high permeability coefficients
SMILES: CC(C)NCC(O)COc1cccc2ccccc12 (stereo not drawn) [Propranolol]
